# According to BindingDB's records for PubMed 35598527 (Universidade Federal De Minas Gerais, 2022):
# Assay: Antagonist activity at pig cerebral cortex CCK2 […] by Packbard-Cobra counter analysis
row,IC50 [nM],SMILES
1,80,C#CCOC1OC(=O)C(Cl)=C1N(CC(C)C)C1CCCCC1 (configuration not stated)
2,85,CC(C)CNC1=C(Cl)C(=O)OC1OCc1ccccc1 (configuration not stated)
